The record followed here is PubChem BioAssay AID1996.

In brackets after ≈: the same amount, converted by molar mass.

For the series the following is noted: buffer; pH 7.4; 200.0 µM.
For `OCCCNc1ncnc2c1[nH]c1ccccc12`, the kinetic solubility (commonly solubility judged after dilution from a stock solution rather than from solid) worked out at 35.6 µg/mL (≈ 147 µM).
`CCN1CCN(CCC(=O)Nc2ccc(F)c(F)c2)CC1` showed a kinetic solubility of more than 44.6 µg/mL.
For `NC(=O)[C@@H]1CCCN1Cc1nc(-c2ccccc2)no1` the value was 31.9 µg/mL (≈ 117 µM); for `COc1ccccc1/C=C/C(=O)OCC(=O)NC1CCCCCCC1`, 7.4 µg/mL (≈ 21.4 µM).
As for `Cc1cccc(C(=O)OCC(=O)NCc2ccco2)c1`, the kinetic solubility is more than 41 µg/mL.
For the compound `O=C(NCc1ccco1)C1Cc2cc(Cl)ccc2O1` (stereo unspecified), the solubility (kinetic) is more than 41.7 µg/mL.
As for `COc1ccc2nc(NC(=O)c3ccc(F)cc3)sc2c1`, the solubility (kinetic) is less than 0.3 µg/mL.
The figure for `CC(=O)Nc1ccc(S(=O)(=O)N(C)CC(=O)NC2CCCCCCC2)cc1` is more than 59.3 µg/mL; for `COc1ccc(C(=O)Nc2ccc(CN3CCS(=O)(=O)CC3)cc2)cc1` it is 1.3 µg/mL (≈ 3.47 µM).
Regarding `CC(NC(=O)c1ccc(S(=O)(=O)Nc2ccccc2Cl)cc1)c1ccncc1` (stereo unspecified), the solubility (kinetic) was more than 62.4 µg/mL.
Take `Cn1ccnc1SCC(=O)Nc1ccc(SC(F)F)cc1`: the kinetic solubility is more than 49.4 µg/mL.
The compound `CCc1ccc(C(C)NC(=S)NCc2ccc(F)cc2)cc1` (stereo unspecified) gave a solubility (kinetic) of 1 µg/mL (≈ 3.16 µM).
Take `O=C(NCC1CCCO1)c1cc2c(s1)CCCC2` (stereo unspecified): the kinetic solubility was more than 39.8 µg/mL.
Regarding `COCCN(C(=O)c1cc(-c2ccco2)nc2ccccc12)c1c(N)n(Cc2ccccc2)c(=O)[nH]c1=O`, the solubility (kinetic) is more than 76.7 µg/mL.
Regarding `CCN(CCNC(=O)c1ccc(C#N)cc1)c1cccc(C)c1`, the solubility (kinetic) is more than 46.1 µg/mL.
Regarding `CC#CC(=O)N1CCC(CO)(CCc2ccccc2)CC1`, the solubility (kinetic) was found to be 41.8 µg/mL (≈ 146 µM).
`Cl.N=c1ccn(Cc2ccc(F)cc2)cc1` returned a kinetic solubility of more than 35.8 µg/mL.
`COC(=O)c1ccc(N2C(=O)C3CC=CC(C)C3C2=O)cc1` (stereo unspecified) gave a solubility (kinetic) of 20 µg/mL (≈ 66.8 µM).
`CC/C(O)=C1\C(=O)CCCC1=NCCc1c(C)[nH]c2ccc(C)cc12` displayed a solubility (kinetic) of 3.3 µg/mL (≈ 9.75 µM).
Consider `O=C(COC(=O)c1ccco1)NCc1ccc2c(c1)OCO2`, for which the kinetic solubility was more than 45.5 µg/mL.
As to `COc1ccc(-c2cc(=O)oc3c(C)c(OCC(=O)N(C)C)ccc23)cc1`, the solubility (kinetic) turned out to be 9.6 µg/mL (≈ 26.1 µM).
`O=C1OC(N2C(=O)CC[C@H]2C(=O)NCC2CCCO2)c2ccccc21` (stereo partly specified) came in with a kinetic solubility of more than 51.7 µg/mL.
For `CC(C)(C)c1csc(NC(=O)c2cccnc2)n1`, the solubility (kinetic) was determined as 10 µg/mL (≈ 38.3 µM).
For `CCCCC1CCC(C(=O)OC(C)C(=O)Nc2ccc(NC(C)=O)cc2)CC1` (stereo unspecified), the solubility (kinetic) was 9 µg/mL (≈ 23.2 µM).
The compound `CCOC(=O)c1c(/N=C/c2ccc(C)cc2O)sc2c1CCN(C)C2` gave a solubility (kinetic) of 11.6 µg/mL (≈ 32.4 µM).
As to `CCCC(=O)OCC(=O)Nc1ccc2c(c1)OCO2`, the solubility (kinetic) worked out at 37.2 µg/mL (≈ 140 µM).
Regarding `CCOc1ccc(Nc2nc3ccccc3n2C)cc1`, the kinetic solubility is more than 40.1 µg/mL.
For `Cc1ccc(NC(=O)COC(=O)C2CCC(=O)N2)c([N+](=O)[O-])c1` (stereo unspecified), the solubility (kinetic) is more than 48.2 µg/mL.
As for `COc1ccc(NCCC(O)c2ccc(Cl)cc2)cc1` (stereo unspecified), the kinetic solubility worked out at 40.5 µg/mL (≈ 139 µM).
`CCN(C(=O)CSc1nnc(-c2ccc(OC)cc2)n1C(C)C)C1CCS(=O)(=O)C1` (stereo unspecified) displayed a kinetic solubility of more than 67.9 µg/mL.
In turn, `CC(=O)N1CCN(c2ccc(NC(=O)c3ccc(Cl)cc3)cc2)CC1` showed a solubility (kinetic) of 1 µg/mL (≈ 2.79 µM).
The figure for `COc1ccc(-c2noc(=O)n2Cc2ccc(C#N)cc2)cc1` is more than 46.1 µg/mL; for `Cc1ccsc1C(=O)OCC(=O)N1CCc2ccccc2C1` it is 34.6 µg/mL (≈ 110 µM).
The figure for `Cc1cccc(N2C(=O)C3CCCN3C2=S)c1C` (stereo unspecified) is 38.4 µg/mL (≈ 147 µM); for `Cn1c(=S)n(C)c2ccccc21` it is more than 26.7 µg/mL; for `COc1cc2c(cc1OC)C(C)N(C(=O)c1cc(Cl)nc(Cl)c1)CC2` (stereo unspecified) it is 17.1 µg/mL (≈ 44.9 µM).
Compound `COc1cc(OC)cc(N2C(=O)CSCC2=O)c1` had a kinetic solubility of more than 40.1 µg/mL.
For `CCC(=O)OCC(=O)Nc1cc([N+](=O)[O-])ccc1OC` the value was 40.9 µg/mL (≈ 145 µM).
Take `COc1ccc(C(=O)NC(=S)N(C)C2CCCCC2)cc1Br`: the solubility (kinetic) is 0.7 µg/mL (≈ 1.82 µM).
On to `COc1cccc(N2C(=O)CC(Sc3nc(C)cc(C)n3)C2=O)c1` (stereo unspecified), for which the solubility (kinetic) is more than 51.5 µg/mL.
`Cc1nc(Nc2cccc(O)c2)c2oc3ccccc3c2n1`: the kinetic solubility came out at 2 µg/mL (≈ 6.87 µM).
With `CCOC(=O)C1=C(CC)Nc2ccccc2N=C1NC(=O)c1cc(S(=O)(=O)N2CCOCC2)ccc1C`, the kinetic solubility was 50.8 µg/mL (≈ 96.5 µM).
Turning to `CC(C)(C)C1COc2ccccc2N1C(=O)c1cccc(Cl)c1` (stereo unspecified), the solubility (kinetic) was less than 0.7 µg/mL.
`CC(=O)N1CCN(C(=O)c2oc3ccccc3c2C)CC1`: the kinetic solubility is more than 42.9 µg/mL.
Take `COC(=O)C1=C(C)N(Cc2ccc(OC)cc2)C(=O)/C1=C\c1ccco1`: the kinetic solubility came out at 7.7 µg/mL (≈ 21.8 µM).
As to `COc1ccc(Nc2ncnc3c2c(C)c(C)n3CCO)cc1`, the kinetic solubility was more than 46.9 µg/mL.
For `Cc1ccc(C)c2nc(Cl)c(C#N)cc12` the value was less than 0.2 µg/mL; for `COc1cccc(Nc2nc(N)c([N+](=O)[O-])c(NCc3ccco3)n2)c1`, 1.2 µg/mL (≈ 3.37 µM); for `COc1ccccc1Nc1c2ccccc2nc2ccccc12`, 35.5 µg/mL (≈ 118 µM).
The figure for `O=C(NCc1cccs1)C1CC(=O)N(c2ccc(Cl)cc2)C1` (stereo unspecified) is 11.9 µg/mL (≈ 35.5 µM); for `Cc1ccc2[nH]cc(CCNC(=O)c3cccs3)c2c1` it is more than 42.7 µg/mL.
